In data set [1] the target is human NaV1.8 (Homo sapiens, UniProt Q9Y5Y9). As to the kind of experiment: cell-based.
The target of data set [2] is human NaV1.7 (Homo sapiens, UniProt Q15858). As to the kind of experiment: cell-based. The note with it: SEM.
Data set [3] has as its target human NaV1.6 (Homo sapiens, UniProt Q9UQD0). As to the kind of experiment: cell-based. The note with it: SEM.
Data set [4] addresses mouse NaV1.7 (Mus musculus, UniProt Q62205). As to the kind of experiment: cell-based. Particulars: SEM.
Data set [5] has as its target human NaV1.9 (Homo sapiens, UniProt Q9UI33). As to the kind of experiment: cell-based.
The test system of data set [6] is human erythrocytes. The note with it: red cells of human, 1 h.
For data set [7], the system named is blowflies (L. caesar). Details: species or system Lucilia caesar. Particulars: in vivo.
The subject of data set [8] is C57BL/6J mice. The note with it: mouse, in vivo.
Data set [9] relates to HEK293 cells. Particulars: 1 h.

The record followed here is PMC10821600 (The Journal of Biological Chemistry, 2023).

Where two headings read alike, the source gives them in different places. No end group written: not given here.

Chain of human NaV1.9 (Q9UI33 whole entry): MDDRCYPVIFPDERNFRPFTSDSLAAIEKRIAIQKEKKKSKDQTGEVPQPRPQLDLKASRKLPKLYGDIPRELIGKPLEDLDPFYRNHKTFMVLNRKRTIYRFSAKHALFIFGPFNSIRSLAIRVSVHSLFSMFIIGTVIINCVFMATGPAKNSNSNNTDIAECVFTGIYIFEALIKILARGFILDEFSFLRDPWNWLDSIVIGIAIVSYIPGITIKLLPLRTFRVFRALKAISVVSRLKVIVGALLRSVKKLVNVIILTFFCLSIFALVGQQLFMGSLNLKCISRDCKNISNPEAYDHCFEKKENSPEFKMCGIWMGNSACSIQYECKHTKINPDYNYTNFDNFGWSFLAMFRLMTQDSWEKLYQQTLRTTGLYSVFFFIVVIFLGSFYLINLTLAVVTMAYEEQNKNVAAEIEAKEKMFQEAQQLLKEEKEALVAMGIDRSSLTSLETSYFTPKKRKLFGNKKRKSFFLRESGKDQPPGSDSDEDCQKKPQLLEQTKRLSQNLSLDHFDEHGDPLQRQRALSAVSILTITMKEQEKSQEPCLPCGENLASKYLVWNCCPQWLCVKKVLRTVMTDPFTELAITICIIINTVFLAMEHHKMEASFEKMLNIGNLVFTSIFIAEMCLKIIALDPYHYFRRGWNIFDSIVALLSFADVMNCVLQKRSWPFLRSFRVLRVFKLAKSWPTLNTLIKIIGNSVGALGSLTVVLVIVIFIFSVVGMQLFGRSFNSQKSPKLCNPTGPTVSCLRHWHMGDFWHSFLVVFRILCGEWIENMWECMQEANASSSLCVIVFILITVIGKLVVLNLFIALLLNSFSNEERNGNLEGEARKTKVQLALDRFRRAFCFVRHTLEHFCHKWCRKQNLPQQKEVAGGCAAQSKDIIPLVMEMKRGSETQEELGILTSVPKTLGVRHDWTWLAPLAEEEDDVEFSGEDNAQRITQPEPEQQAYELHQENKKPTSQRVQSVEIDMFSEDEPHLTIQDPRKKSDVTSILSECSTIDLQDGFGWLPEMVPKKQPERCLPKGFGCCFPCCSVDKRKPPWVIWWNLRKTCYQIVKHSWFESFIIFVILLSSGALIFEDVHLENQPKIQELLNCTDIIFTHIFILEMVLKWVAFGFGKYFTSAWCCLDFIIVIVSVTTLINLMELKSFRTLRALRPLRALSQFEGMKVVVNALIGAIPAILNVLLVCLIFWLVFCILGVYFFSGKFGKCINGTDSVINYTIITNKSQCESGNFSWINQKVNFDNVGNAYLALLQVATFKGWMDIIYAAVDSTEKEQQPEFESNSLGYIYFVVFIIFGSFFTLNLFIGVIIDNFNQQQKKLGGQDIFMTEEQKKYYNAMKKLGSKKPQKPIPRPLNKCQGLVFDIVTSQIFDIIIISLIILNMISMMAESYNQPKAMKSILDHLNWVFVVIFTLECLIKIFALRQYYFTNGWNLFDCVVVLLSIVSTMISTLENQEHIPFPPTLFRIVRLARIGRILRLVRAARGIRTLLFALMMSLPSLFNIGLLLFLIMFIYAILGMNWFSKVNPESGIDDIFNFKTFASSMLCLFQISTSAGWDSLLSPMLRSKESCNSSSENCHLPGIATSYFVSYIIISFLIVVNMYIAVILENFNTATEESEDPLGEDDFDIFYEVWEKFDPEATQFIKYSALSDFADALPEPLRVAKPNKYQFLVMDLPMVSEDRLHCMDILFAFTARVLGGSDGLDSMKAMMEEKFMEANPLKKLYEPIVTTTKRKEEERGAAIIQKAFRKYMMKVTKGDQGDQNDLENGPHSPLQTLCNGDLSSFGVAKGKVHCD
Chain of human NaV1.8 (Q9Y5Y9 whole entry): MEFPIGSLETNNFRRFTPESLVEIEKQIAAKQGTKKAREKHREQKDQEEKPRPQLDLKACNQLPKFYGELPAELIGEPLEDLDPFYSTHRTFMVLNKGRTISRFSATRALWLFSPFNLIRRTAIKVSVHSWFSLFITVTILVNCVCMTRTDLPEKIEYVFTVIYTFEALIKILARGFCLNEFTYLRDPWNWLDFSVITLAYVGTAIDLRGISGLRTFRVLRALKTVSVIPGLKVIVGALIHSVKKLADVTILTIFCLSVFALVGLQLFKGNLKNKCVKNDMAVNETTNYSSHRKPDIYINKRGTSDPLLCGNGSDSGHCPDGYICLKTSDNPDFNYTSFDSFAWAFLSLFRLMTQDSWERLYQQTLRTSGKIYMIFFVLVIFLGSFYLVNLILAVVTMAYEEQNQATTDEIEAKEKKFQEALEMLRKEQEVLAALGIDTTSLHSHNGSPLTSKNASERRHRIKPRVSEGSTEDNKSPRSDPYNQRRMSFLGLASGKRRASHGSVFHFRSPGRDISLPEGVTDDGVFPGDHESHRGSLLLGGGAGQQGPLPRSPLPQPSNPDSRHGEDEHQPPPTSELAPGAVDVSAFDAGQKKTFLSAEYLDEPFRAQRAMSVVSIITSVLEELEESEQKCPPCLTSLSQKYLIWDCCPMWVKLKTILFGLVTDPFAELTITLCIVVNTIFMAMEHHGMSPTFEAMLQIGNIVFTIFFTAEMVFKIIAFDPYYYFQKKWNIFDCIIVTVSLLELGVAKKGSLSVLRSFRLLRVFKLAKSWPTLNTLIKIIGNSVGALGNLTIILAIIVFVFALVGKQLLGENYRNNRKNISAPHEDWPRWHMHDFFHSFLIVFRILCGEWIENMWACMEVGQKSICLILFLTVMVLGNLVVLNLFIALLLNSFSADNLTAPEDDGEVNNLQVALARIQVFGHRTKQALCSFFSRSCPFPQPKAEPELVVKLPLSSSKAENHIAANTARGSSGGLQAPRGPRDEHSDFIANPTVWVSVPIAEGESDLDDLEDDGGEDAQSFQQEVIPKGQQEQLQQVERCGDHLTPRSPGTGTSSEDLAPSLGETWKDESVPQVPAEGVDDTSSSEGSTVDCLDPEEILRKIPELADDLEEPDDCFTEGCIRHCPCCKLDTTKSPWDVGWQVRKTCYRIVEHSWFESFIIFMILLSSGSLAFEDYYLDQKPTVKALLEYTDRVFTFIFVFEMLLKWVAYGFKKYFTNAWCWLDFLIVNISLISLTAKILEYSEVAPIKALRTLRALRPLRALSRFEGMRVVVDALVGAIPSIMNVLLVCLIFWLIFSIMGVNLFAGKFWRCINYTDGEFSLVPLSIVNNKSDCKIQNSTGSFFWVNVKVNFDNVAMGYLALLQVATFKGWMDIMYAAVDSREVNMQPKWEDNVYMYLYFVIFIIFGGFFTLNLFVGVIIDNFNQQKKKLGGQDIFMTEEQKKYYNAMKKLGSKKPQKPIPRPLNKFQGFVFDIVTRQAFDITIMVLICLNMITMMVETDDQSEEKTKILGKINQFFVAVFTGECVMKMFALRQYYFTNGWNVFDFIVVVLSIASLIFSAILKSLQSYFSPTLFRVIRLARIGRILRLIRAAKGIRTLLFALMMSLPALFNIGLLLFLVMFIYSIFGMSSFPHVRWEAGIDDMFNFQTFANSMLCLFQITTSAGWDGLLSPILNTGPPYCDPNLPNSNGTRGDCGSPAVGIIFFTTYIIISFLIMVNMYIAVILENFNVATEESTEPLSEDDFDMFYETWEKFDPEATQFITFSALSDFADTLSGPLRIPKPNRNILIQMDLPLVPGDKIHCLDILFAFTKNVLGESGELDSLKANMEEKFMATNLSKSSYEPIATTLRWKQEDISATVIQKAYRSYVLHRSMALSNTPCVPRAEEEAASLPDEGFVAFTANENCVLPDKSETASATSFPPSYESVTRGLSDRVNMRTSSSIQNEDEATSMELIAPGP

As to ALPALPLLMFLFTLPALQHWIEKNWIN-NH2 [Pm2a], the EC50 in data set [1] (SEM) was 2600 ± 700 nM; in data set [2], 154 ± 17 nM; in data set [3], 176 ± 56 nM; in data set [4] it was 102 ± 18 nM; in data set [5], less than 1000 nM.
Take “GIFSALKTLGKILLPVILPTVAEKIKEKV-NH2 [Pm6a]”: the “median hemolytic concentration (HC50)” value in data set [6] is reported as 618 ± 148 nM. In data set [7], the “kind of paralysis in blowflies” value is recorded as “rapid paralysis” and the “reversibility of paralysis in blowflies” value was “irreversible”. Moreover, in [7] (SEM), the “median paralytic dose PD50[1 h]” value is 9.9 ± 0.4 nmol/g. The “spontaneous nocifensive behaviors in mice” value in data set [8] is “did not cause nociception in mice”. Also, in data set [9], the “median cytotoxic concentration (CC50)” value is reported as 465 ± 359 nM.
Turning to GLPLLALLFSLPVLQHWIEKNWIN-NH2 [Pm1a], the concentration giving a half-maximal response (EC50) is more than 10000 nM in data set [1]; 403 ± 96 nM in [2]; 285 ± 47 nM in [3]; 352 ± 58 nM in data set [4]; more than 1000 nM in data set [5].

The EC50 is the midpoint of the concentration-response curve. A lower EC50 goes with an effect from little substance.
